Reference: patent US20240317735A1, “HYDROISOQUINOLINE OR HYDRONAPHTHYRIDINE COMPOUNDS FOR THE TREATMENT OF AUTOIMMUNE DISEASE” (Hoffmann-La Roche Inc., priority 2020, published 2024)

Columns and labels:
[1] = Human microsome stability assay; type: in vitro ADME; settings: for Clearance of Human microsome: 1 μM test compound, 0.5 mg/mL liver microsomal protein, 37° C., pH 7.4; for human liver microsome stability (in words): qualitative statement
Procedure: The human microsomal stability assay is used for early assessment of metabolic stability of a test compound in human liver microsomes.
Human liver microsomes (Cat. NO.: 452117, Corning, USA; Cat. NO.: H2610, Xenotech, USA) were preincubated with test compound for 10 minutes at 37° C. in 100 mM potassium phosphate buffer, pH 7.4. The reactions were initiated by adding NADPH regenerating system. The final incubation mixtures contained 1 μM test compound, 0.5 mg/mL liver microsomal protein, 1 mM MgCl2, 1 mM NADP, 1 unit/mL isocitric dehydrogenase and 6 mM isocitric acid in 100 mM potassium phosphate buffer, pH 7.4. After incubation times of 0, 3, 6, 9, 15 and 30 minutes at 37° C., 300 μL of cold acetonitrile (including internal standard) was added to 100 μL incubation mixture to terminate the reaction. Following precipitation and centrifugation, the amount of compound remaining in the samples were determined by LC-MS/MS. Controls of no NADPH regenerating system at zero and 30 minutes were also prepared and analyzed.

TLR9 = target: T1, TLR9 (Homo sapiens, UniProt Q9NR96); settings: qualitative statement on compounds of WO2018047081; cited from earlier work
T1 sequence (Q9NR96 26-1032): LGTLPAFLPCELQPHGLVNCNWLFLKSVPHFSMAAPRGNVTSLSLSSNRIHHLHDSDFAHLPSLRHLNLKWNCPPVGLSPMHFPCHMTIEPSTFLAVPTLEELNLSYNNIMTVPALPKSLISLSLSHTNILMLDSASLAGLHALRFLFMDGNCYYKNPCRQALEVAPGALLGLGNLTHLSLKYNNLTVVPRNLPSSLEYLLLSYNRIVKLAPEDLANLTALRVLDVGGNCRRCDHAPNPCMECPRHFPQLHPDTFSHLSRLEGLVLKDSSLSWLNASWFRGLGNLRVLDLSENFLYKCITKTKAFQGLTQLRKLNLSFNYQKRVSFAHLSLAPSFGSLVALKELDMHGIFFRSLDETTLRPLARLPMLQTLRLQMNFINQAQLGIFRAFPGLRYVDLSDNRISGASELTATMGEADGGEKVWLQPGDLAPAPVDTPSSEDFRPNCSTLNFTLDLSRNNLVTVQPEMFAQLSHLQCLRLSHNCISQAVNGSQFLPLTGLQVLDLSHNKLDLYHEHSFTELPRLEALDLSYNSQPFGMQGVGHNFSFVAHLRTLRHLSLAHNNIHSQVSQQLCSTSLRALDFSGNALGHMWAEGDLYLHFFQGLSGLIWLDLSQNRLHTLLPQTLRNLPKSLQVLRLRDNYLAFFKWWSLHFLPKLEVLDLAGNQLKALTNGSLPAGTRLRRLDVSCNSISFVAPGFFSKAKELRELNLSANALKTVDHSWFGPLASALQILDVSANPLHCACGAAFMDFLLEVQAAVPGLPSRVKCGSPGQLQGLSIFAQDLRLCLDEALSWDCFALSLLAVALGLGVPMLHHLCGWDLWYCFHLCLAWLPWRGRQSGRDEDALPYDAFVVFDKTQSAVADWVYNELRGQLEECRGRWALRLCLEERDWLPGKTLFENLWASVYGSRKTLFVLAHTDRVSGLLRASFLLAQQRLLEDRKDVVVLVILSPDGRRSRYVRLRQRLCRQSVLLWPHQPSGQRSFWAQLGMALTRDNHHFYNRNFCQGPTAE

Compound | Clearance of Human microsome [1] [mL/min/kg] | TLR9 activity (in words) (TLR9) | human liver microsome stability (in words) [1]
C[C@H]1CN(c2ccnc3c2cnn3C)Cc2ccc(N3C[C@@H](N)[C@](C)(O)C3)cc21 [Example 36, (3R,4R)-4-amino-3-methyl-1-[(4R)-4-methyl-2-(1-methylpyrazolo[3,4-b]pyridin-4-yl)-3,4-dihydro-1H-isoquinolin-6-yl]pyrrolidin-3-ol] | 6.2 | – | –
C[C@H]1CN(c2ccnc3c2cnn3C)Cc2ccc(N3CC[N+](C)(C)CC3)cc21.[Cl-] [Example 39, (4R)-6-(4,4-dimethylpiperazin-4-ium-1-yl)-4-methyl-2-(1-methylpyrazolo[3,4-b]pyridin-4-yl)-3,4-dihydro-1H-isoquinoline chloride] | 6.2 | – | –
Cc1cc(N2CCc3c(c(C)nn3CC34CCC(NC(=O)[C@@H]5COCCN5)(CC3)CC4)C2)c2cnn(C)c2n1 [Example N8, reference compound] | 16.3 | much lower TLR9 activity | poor human liver microsome stability
Cc1cc(N2CCc3c(c(C)nn3CC34CCC(N(C)C5CCC5)(CC3)CC4)C2)c2cnn(C)c2n1 [Example N79, reference compound] | 18.2 | best TLR9 activity | poor human liver microsome stability
